Data as given in article PMC2721901 (Molecular cell, 2009).

Assays:
Assay type in all cases: biochemical
ISW1a = ISW1a (Saccharomyces cerevisiae, UniProt P38144); experiment: nucleosome mobilization, native gel shift; settings: 70N0 nucleosomes, 90 or 800 µM ATP, 5 mM MgCl2, pH 7.6, 20°C
ISW2 [1] = target: T1, ISW2 (Saccharomyces cerevisiae, UniProt Q08773); experiment: nucleosome mobilization, native gel shift; settings: 70N0 nucleosomes, 90 or 800 µM ATP, 5 mM MgCl2, pH 7.6, 20°C
ISW2 [2] = target: T1, ISW2; experiment: competitive inhibitor assay against ATP; settings: competitive with ATP at active site

T1 sequence (Q08773 whole entry): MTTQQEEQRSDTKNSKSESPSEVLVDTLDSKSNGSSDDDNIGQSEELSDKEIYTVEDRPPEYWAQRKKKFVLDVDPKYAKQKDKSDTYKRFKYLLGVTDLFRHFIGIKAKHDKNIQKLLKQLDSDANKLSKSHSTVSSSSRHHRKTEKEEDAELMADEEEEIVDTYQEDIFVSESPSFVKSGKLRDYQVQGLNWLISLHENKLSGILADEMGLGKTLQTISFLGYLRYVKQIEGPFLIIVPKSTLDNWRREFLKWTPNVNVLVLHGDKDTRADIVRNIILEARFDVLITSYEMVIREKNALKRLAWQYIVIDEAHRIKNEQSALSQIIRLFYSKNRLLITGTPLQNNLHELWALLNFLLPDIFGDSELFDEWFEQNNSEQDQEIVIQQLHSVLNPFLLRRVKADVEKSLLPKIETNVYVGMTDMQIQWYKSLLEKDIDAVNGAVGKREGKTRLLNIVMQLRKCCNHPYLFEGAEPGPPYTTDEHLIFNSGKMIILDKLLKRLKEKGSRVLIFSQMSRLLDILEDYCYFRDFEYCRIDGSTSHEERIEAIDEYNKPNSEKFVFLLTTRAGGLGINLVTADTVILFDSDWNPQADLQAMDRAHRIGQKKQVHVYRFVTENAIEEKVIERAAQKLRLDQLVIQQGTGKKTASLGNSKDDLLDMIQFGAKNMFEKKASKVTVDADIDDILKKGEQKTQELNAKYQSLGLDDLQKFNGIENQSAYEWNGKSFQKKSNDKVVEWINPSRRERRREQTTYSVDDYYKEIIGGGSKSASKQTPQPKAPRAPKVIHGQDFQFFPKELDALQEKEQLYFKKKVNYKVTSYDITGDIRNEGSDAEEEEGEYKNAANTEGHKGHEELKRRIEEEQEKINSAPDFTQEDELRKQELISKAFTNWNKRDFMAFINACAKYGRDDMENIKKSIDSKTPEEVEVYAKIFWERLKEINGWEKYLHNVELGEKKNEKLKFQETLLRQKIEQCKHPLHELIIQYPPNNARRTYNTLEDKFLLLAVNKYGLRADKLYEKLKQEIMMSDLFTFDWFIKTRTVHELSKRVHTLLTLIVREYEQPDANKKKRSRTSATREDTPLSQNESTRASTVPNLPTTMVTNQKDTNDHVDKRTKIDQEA
T1 sequence (P53125 whole entry partner): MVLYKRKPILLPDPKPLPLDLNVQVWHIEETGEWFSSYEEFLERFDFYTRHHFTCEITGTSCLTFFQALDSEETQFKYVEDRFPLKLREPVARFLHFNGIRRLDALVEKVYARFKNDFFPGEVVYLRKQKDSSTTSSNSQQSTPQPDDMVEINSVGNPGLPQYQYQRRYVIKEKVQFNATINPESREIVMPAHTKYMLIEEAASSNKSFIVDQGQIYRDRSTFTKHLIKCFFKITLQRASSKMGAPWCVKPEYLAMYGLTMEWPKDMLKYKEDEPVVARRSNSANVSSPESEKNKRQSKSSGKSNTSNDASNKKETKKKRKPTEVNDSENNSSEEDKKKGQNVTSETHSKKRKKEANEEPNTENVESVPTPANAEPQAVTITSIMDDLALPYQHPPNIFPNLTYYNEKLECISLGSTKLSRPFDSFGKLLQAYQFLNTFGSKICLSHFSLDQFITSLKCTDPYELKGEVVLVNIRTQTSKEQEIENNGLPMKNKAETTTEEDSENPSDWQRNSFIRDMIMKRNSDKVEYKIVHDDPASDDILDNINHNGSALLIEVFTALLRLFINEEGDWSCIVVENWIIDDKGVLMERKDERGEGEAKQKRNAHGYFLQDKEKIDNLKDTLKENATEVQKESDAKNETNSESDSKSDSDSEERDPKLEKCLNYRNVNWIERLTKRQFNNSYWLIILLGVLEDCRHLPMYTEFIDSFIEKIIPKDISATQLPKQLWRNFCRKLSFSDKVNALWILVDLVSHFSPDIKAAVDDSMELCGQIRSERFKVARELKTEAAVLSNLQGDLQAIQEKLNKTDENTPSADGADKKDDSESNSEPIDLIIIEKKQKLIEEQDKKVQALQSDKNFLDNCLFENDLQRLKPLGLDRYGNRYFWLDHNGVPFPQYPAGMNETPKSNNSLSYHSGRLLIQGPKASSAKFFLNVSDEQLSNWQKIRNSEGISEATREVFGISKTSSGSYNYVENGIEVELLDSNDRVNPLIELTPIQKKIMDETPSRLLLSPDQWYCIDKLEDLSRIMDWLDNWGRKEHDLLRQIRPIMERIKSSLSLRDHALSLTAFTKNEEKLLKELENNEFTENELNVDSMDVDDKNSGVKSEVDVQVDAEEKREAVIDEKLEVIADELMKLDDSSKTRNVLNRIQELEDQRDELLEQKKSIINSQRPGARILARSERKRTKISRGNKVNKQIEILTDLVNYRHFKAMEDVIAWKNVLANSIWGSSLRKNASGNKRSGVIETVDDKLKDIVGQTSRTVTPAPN
T1 sequence (Q04603 whole entry partner): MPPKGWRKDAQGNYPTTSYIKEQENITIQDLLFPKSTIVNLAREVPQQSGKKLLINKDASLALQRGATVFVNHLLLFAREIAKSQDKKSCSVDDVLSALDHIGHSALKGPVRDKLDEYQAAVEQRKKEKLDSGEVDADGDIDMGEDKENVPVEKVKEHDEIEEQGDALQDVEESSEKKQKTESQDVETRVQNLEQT
T1 sequence (P40366 whole entry partner): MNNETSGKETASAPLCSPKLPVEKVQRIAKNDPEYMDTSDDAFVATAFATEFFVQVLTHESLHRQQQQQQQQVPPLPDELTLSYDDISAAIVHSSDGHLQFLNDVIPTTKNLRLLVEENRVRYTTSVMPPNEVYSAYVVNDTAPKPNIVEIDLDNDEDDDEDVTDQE
Chain of ISW1a (P38144 whole entry): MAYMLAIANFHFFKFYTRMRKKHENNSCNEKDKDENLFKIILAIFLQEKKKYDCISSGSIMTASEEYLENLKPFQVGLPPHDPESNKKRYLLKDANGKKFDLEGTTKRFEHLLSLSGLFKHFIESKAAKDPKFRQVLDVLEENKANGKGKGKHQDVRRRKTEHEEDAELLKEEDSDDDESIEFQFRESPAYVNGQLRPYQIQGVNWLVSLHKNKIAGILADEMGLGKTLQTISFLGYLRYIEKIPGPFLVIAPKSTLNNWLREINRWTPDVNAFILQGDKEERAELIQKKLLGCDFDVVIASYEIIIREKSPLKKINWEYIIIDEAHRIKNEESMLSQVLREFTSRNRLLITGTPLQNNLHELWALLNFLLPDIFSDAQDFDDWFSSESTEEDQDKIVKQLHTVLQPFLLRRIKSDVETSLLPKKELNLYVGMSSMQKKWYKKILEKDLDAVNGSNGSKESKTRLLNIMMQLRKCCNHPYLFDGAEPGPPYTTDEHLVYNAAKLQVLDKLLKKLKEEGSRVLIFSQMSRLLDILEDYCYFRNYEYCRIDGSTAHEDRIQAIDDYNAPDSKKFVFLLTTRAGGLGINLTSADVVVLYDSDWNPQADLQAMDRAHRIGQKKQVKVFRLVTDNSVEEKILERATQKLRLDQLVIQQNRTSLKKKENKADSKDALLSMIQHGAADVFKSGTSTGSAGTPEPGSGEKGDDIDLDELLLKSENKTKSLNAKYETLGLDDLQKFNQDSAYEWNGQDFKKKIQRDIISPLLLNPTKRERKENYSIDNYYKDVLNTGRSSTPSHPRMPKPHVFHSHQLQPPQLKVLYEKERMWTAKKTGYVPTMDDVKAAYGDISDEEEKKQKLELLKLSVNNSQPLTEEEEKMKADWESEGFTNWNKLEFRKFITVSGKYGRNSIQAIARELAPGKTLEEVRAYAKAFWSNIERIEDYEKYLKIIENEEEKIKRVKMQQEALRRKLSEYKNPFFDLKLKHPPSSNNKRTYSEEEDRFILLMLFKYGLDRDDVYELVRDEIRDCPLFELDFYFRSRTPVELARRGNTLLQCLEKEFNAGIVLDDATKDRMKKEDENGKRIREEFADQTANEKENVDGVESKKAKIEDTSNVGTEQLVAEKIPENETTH
Chain of ISW1a (P43596 whole entry partner): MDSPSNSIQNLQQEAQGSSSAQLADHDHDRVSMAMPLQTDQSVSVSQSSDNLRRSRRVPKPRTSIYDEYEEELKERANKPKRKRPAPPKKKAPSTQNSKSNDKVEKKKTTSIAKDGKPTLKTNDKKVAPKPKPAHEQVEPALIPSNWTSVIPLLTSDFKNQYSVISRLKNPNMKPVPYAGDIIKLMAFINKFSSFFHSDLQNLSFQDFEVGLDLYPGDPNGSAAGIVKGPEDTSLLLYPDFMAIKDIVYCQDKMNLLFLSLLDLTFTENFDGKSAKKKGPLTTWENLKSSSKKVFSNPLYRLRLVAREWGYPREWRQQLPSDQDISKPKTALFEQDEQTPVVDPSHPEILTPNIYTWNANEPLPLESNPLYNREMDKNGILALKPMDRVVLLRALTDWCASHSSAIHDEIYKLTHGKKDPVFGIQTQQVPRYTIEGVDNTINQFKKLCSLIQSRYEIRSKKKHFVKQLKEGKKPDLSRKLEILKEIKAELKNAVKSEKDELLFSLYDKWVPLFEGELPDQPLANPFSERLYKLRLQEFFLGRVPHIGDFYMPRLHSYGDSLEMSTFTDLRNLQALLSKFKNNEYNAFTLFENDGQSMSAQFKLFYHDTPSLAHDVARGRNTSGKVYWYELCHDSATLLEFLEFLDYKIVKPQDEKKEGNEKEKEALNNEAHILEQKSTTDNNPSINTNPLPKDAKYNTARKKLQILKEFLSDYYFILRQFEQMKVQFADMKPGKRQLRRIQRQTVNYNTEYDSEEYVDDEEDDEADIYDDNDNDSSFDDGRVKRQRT

Row | Structure (SMILES) | nucleosome mobilization, native gel shift (ISW1a) | nucleosome mobilization, native gel shift (ISW2 [1]) | competitive inhibitor assay against ATP (ISW2 [2])
1 | Nc1ncnc2c1ncn2[C@@H]1O[C@H](COP(=O)(O)OP(=O)(O)OP(=O)(O)O)[C@@H](O)[C@H]1O [ATP] | ATP was found to be required for template commitment by ISW1a | Template commitment of ISW2 required initiation of the remodeling process rather than just ISW2 binding | –
2 | Nc1ncnc2c1ncn2[C@@H]1O[C@H](COP(=O)(O)OP(=O)(O)O)[C@@H](O)[C@H]1O [ADP] | – | – | ADP and γ-S-ATP were shown to be bound at the active site of ISW2
